Results as given in patent publication US6569849B1, “N-Substituted azaheterocyclic compounds” (Novo Nordisk A/S, priority 1996, dated 2003).
Where a name gives a salt, the structure may show the parent alone.

System: histamine induced paw oedema
Assay: Histamine induced paw oedema (rat histamine paw oedema test)
Assay type: in vivo, male Sprague-Dawley rats
Conditions: 1.0 mg/kg, intraperitoneally 15 minutes before anaesthetics; paw swelling 20 minutes after histamine, water plethysmography
Description: Compounds of formula I may be used to treat all painful, hyperalgesic and/or inflammatory conditions in which C-fibres play a pathophysiological role by eliciting neurogenic pain or inflammation, i.e.: The rat histamine paw oedema test was performed essentially as described by Amann et al. (Europ. J. Pharmacol. 279, 227-231, 1995). In brief 250-300 g male Sprague-Dawley rats were anaesthetized with pentobarbital sodium, and placed on a 32 degree (Celsius) heated table. Ten minutes later histamine (50 micoliter, 3 mg/ml) was injected in the right hind paw and 20 minutes hereafter the paw swelling was determined by water plethysmography (Ugo Basile). Test compounds were administered intraperitoneally at 15 minutes before the anaesthetics. Values for inhibition of histamine induced oedema response for some representative compounds are recorded in table 1.

Row | Compound | % Oedema inhibition
1 | CC(CN1c2ccccc2CCc2ccccc21)CN1CCCCC1C(=O)O [Example 3, 1-(3-(10,11-Dihydro-5H-dibenzo[b,f]azepin-5-yl)-(2R)-methyl-1-propyl)-(2R)-piperidinecarboxylic Acid Hydrochloride] | 47%
2 | Cl.O=C(O)[C@@H]1CCCN(C/C=C\CN2c3ccccc3CCc3ccccc32)C1 [Example 4, 1-(4-(10,11-Dihydro-5H-dibenzo[b,f]azepin-5-yl)-(2Z)-butenyl)-(3R)-piperidinecarboxylic Acid Hydrochloride] | 26%

System: not given
Assay: not given
Conditions: not given

Row | Compound | melting point
3 | CC(CCN1c2ccccc2CCc2ccccc21)N1CCC[C@@H](C(=O)O)C1.Cl (stereo partly drawn) (hydrate or solvate) | 214 to 218 °C
4 | Cl.O=C(O)[C@@H]1CCCN(CCC(=O)N2c3ccccc3CCc3ccccc32)C1 (hydrate or solvate) | 180 to 183 °C
5 | O=C(O)[C@@H]1CCCN(CC#CCN2c3ccccc3CCc3ccccc32)C1 (hydrate or solvate) [Example 10, (R)-1-(4-(10,11-Dihydro-5H-dibenzo[b,f]azepin-5-yl)-2-butyn-1-yl)-3-piperidinecarboxylic Acid] | 153 to 154 °C
6 | CN(CCN1CCC[C@@H](C(=O)O)C1)C1c2ccccc2CCc2ccccc21 (hydrate or solvate) [Example 30, (R)-1-(2-(N-(10,11-dihydro-5H-dibenzo[a,d]cyclohepten-5-yl)-N-methylamino)ethyl)-3-piperidinecarboxylic Acid] | 187 to 190 °C
7 | O=C(O)[C@@H]1CCCN(C(=O)CC=C2c3ccccc3CCc3ccccc32)C1 [Example 5, 1-(3-(10,11-Dihydro-5H-dibenzo[a,d]cyclohepten-5-ylidene)-1-propionyl)-(3R)-piperidinecarboxylic Acid] | 71 to 76 °C

Further lines, results first:

Row | melting point | Compound
8 | 167 to 175 °C | Cl.O=C(O)[C@@H]1CCCN(Cc2ccc(C3c4ccccc4CCc4ccccc43)cc2)C1
9 | 201 to 216 °C | CC(CN1c2ccccc2CCc2ccccc21)CN1CCCCC1C(=O)O (as salt: hydrochloride) (hydrate or solvate) [Example 3, 1-(3-(10,11-Dihydro-5H-dibenzo[b,f]azepin-5-yl)-(2R)-methyl-1-propyl)-(2R)-piperidinecarboxylic Acid Hydrochloride]
10 | 213 to 223 °C | CC(CN1c2ccccc2CCc2ccccc21)N1CCC[C@@H](C(=O)O)C1.Cl (stereo partly drawn) (hydrate or solvate)
11 | 151 to 155 °C | CC(CN1CCC[C@@H](C(=O)O)C1)=C1c2ccccc2CCc2ccccc21.Cl (hydrate or solvate)
12 | 116 to 120 °C | CCCC(CN1CCC[C@@H](C(=O)O)C1)CN1c2ccccc2CCc2ccccc21.Cl (stereo partly drawn) (hydrate or solvate)
